Results: patent US10512637B2, “Use of inhibitor of cystine-glutamate transporter” (CHINA MEDICAL UNIVERSITY, priority 2015, dated 2019)

Legend:
[1] = test system: TUNEL-positive cells in frontal cortex; test: TUNEL staining of brain after chronic alcohol exposure; assay type: in vivo, C57BL/6J mice; settings: WT mice; treatment for 14 days; sulfasalazine 15 mg/kg/day i.p., sorafenib 30 mg/kg i.p., regorafenib 30 mg/kg i.p.; compared to vehicle; FIG. 4B
Experimental: (§1) The concentration of alcohol was increased every fourteenth day. […] Intakes were recorded every day.

wild type cortical cells = test: Annexin V apoptosis assay in primary cortical cells exposed to alcohol or cocaine; assay type: cell-based, C57BL/6J mouse; settings: alcohol or cocaine incubation, 18 hours; sulfasalazine 500 μM, sorafenib 10 μM, regorafenib 10 μM; compared to vehicle (DMSO); FIG. 6
Experimental: Data are means±SD (n=3). *P<0.001 compared to vehicle group.
Primary cortical cells were prepared from cerebral cortices of wild-type C57BL/6J or xCT homozygous knockout (xCT KO) mouse embryos in embryonic day 17 as previously described in Shyu, W. C., et al., Secretoneurin promotes neuroprotection and neuronal plasticity via the Jak2/Stat3 pathway in murine models of stroke. J Clin Invest, 2008. 118(1): p. 133-48.
Annexin V staining was performed to determine cell apoptosis using the Annexin V-FITC Apoptosis Detection Kit (Sigma-Aldrich) for 10 minutes at room temperature according to the manufacturer's instructions, and then flow cytometric analysis was performed.

alcohol-dependent mice = test: Free-choice two-bottle drinking after chronic alcohol exposure; assay type: in vivo, C57BL/6J mice; settings: WT mice after chronic alcohol exposure; treatment for 7 days; sulfasalazine 15 mg/kg/day i.p., sorafenib 30 mg/kg i.p., regorafenib 30 mg/kg i.p.; compared to control vehicle (DMSO); FIG. 2B
Experimental: Data are means±SD (n=6-8). *P<0.0001 compared to water. ^#P<0.0001 compared to WT mice or vehicle treatment.
as §1

[2] = test system: cocaine-dependent WT mice; test: Free-choice two-bottle drinking after chronic cocaine exposure; assay type: in vivo, C57BL/6J mice; settings: WT mice after chronic cocaine exposure (15 mg/kg i.p., 7 days); sulfasalazine 15 mg/kg/day i.p. for 6 days during free-choice drinking; compared to vehicle

SMILES | chronic alcohol exposure-induced apoptosis (TUNEL-positive cells) in brain [1] | substance-induced apoptosis in cortical cells (wild type cortical cells) | daily alcohol consumption during free-choice drinking (alcohol-dependent mice) | cocaine preference and craving behaviours [2]
CNC(=O)c1cc(Oc2ccc(NC(=O)Nc3ccc(Cl)c(C(F)(F)F)c3)c(F)c2)ccn1 [regorafenib] | inhibited apoptosis | significantly inhibited substance-induced apoptosis | significantly attenuated the daily alcohol consumption | 
CNC(=O)c1cc(Oc2ccc(NC(=O)Nc3ccc(Cl)c(C(F)(F)F)c3)cc2)ccn1 [sorafenib] | inhibited apoptosis | significantly inhibited substance-induced apoptosis | significantly attenuated the daily alcohol consumption | 
O=C(O)c1cc(/N=N/c2ccc(S(=O)(=O)Nc3ccccn3)cc2)ccc1O [sulfasalazine] |  | significantly inhibited substance-induced apoptosis | significantly attenuated the daily alcohol consumption | fully inhibited cocaine preference and craving behaviours
